{
  "source": "patent US20220362249A1",
  "about": "“METHODS FOR TREATING […]” (PTC Therapeutics MP, Inc., priority 2019, published 2022)",
  "key": {"blood Phe": {"tested_on": "blood Phe", "test": "Reduction of blood Phe in patients with PKU, randomized crossover of PTC923 vs sapropterin dihydrochloride", "assay_type": "in vivo, human", "details": "for Proportion of patients achieving blood Phe <360 μmol/L: n of 24; for Mean (SD) blood Phe, At baseline: Day 1 pre-dose; for Least squares mean (SE) change from baseline in blood Phe / Mean (SD) blood Phe, Change / Mean (SD) blood Phe, On treatment: 7 days; for Mean (SD) blood Phe, On treatment: mean of days 3, 5 and 7", "procedure": "Following screening for eligibility, a 7-day run-in period commenced. Patients then received 7 days of once-daily oral treatment with either PTC923 20 mg/kg/day (“low dose”), or PTC923 60 mg/kg/day or sapropterin dihydrochloride, in a random order. PTC923 (formerly CNSA-001) is oral sepiapterin. Each patient was randomized to one of six treatment sequences (FIG. 2). The randomization in six different treatment sequences was intended to minimize carry over effect, treatment period effect, patient fatigue, and natural fluctuations in blood Phe levels. A 7-day washout period separated each active treatment period. Patients were asked to maintain their usual pre-study diet, including consumption of amino acid mixtures if prescribed, and were monitored throughout the study by a metabolic dietician.\nBlood samples for measurement of Phe were taken on 7, 5, 3, and 1 days before randomization. During treatment periods, blood was taken pre-dose for day 1 and post-dose for days 3, 5 and 7. During the washout periods, blood was taken for measurement of Phe on days 1, 3, 5, and 7. All samples were taken under fasting conditions or no earlier than 3 hours following a meal and at the same time of day. Blood Phe was measured using a validated LC-MS-MS technique of dried blood sampling via Volumetric Absorptive Microsampling (VAMS®) using Mitra® 4-sampler clamshells, at a central bioanalytical laboratory (Agilex Biolabs Pty Ltd).\nThe main objective of the study was to assess the efficacy of PTC923 measured as the mean blood Phe change from baseline. The efficacy population consisted of all patients who were randomized and had blood Phe measurements before treatment and at days 3, 5 and 7 of treatment from at least one treatment period. The safety population consisted of all patients who were randomized and who received any dose of study treatment. The sample size calculation was based on an all-comers, placebo-controlled regulatory study of sapropterin with an observed mean decrease in blood Phe of 99 μmol/L and standard deviation of 220 μmol/L, and assumed a true mean decrease in blood Phe of 300 μmol/L with 80% power utilizing a 2-sided α of 0.05.\nResponse to PTC923 was evaluated by measuring the mean change from baseline in blood Phe (calculated as the mean of measurements at days 3, 5 and 7 of each treatment period). Day 1 pre-dose blood Phe concentrations for each treatment period served as the individual patient specific baseline for that period.\nThe change from baseline in blood Phe of each treatment period was modelled using a linear mixed model for repeated measures (MMRM). The efficacy model included fixed effects for baseline for each treatment period, treatment group, sequence, period, and a random subject effect within each sequence, with a first order autoregressive AR (1) covariance structure. No unplanned covariates were included.\nPairwise comparisons in changes from baseline in Phe were performed between each PTC923 treatment and sapropterin treatment by calculating the least squares means with Dunnet's method of adjustment for multiple comparisons. The estimated change in blood Phe levels, their standard errors (SE) and associated p-values were calculated for each pairwise comparison. Dunnet's method of adjustment was used to account for the multiple comparisons of the test groups against the control group. This adjustment ensured that the overall Type I error rate under the null hypothesis was maintained despite multiple test groups being compared to the single control group.\nThe overall mean changes in blood Phe for each treatment were calculated and the standard deviations (SD) were determined.\nA prespecified sensitivity analysis excluded treatment periods where baseline Phe was <300 μmol/L and a responder analysis looked at patients with baselines ≥300 μmol/L who responded to sapropterin and/or to PTC923 treatment by ≥20% reduction."}, "[1]": {"test": "Adverse events in patients with PKU on PTC923 or sapropterin dihydrochloride", "assay_type": "in vivo, human", "details": "for Headache (all-cause AE): transient", "from_the_text": "PTC923 safety was monitored and adverse events (AEs) were coded using the Medical Dictionary for Regulatory Activities (MedDRA®) version 21.0. Treatment-emergent adverse events (TEAEs) were defined as AE that began on or after first dose of study drug. A TEAE was associated with the study treatment currently being received, or the last study treatment before its onset. A treatment-related TEAE was, in the judgment of the investigator possibly, probably or definitely related to treatment. A serious AE (SAE) was defined as resulting in death, life-threatening AE, inpatient hospitalization or prolongation of existing hospitalization, a persistent or significant disability/incapacity or a substantial disruption of the ability to conduct normal life functions, or a congenital anomaly/birth defect."}, "[2]": {"details": "All subjects (N = 24), 20 mg/kg/day oral"}, "[3]": {"details": "All subjects (N = 24), 60 mg/kg/day oral"}, "[4]": {"details": "Subjects with classical PKU (N = 11), 20 mg/kg/day oral"}, "[5]": {"details": "Subjects with classical PKU (N = 11), 60 mg/kg/day oral"}, "[6]": {"details": "patients on PTC923 60mg/kg with at least 30% reduction in Phe"}},
  "note": "“And” between values parts separate entries of the source, which are not always exact repeats. Equal values may be shown once.",
  "data": [
    {"smiles": "C[C@H](O)C(=O)C1=Nc2c(nc(N)[nH]c2=O)NC1", "note": "[sepiapterin, Sepiapterin]", "values": [
      {"measurement": "Proportion of patients achieving blood Phe <360 μmol/L", "setting": "blood Phe; 20 mg/kg", "result": 46, "unit": "%"},
      {"measurement": "Proportion of patients achieving blood Phe <360 μmol/L", "setting": "blood Phe; 60 mg/kg", "result": 50, "unit": "%"},
      {"measurement": "LSM difference in blood Phe change vs. sapropterin dihydrochloride", "setting": "blood Phe; 11 patients with classical PKU, PTC923 60 mg/kg", "result": -148.0, "unit": "µmol/L"},
      {"measurement": "Mean (SD) blood Phe, At baseline", "setting": "blood Phe; All subjects (N = 24), 20 mg/kg period", "result": "694.2 (396.0) μmol/L"},
      {"measurement": "Least squares mean (SE) change from baseline in blood Phe", "setting": "blood Phe; [2]", "result": "−146.9 (41.8) μmol/L"},
      {"measurement": "Mean (SD) blood Phe, Change", "setting": "blood Phe; [2]", "result": "−143.7 (224.8) μmol/L"},
      {"measurement": "Mean (SD) blood Phe, On treatment", "setting": "blood Phe; [2]", "result": "550.4 (433.7) μmol/L"},
      {"measurement": "Mean (SD) blood Phe, At baseline", "setting": "blood Phe; All subjects (N = 24), 60 mg/kg period", "result": "727.8 (388.2) μmol/L"},
      {"measurement": "Least squares mean (SE) change from baseline in blood Phe", "setting": "blood Phe; [3]", "result": "−206.4 (41.8) μmol/L"},
      {"measurement": "Mean (SD) blood Phe, Change", "setting": "blood Phe; [3]", "result": "−210.1 (235.8) μmol/L"},
      {"measurement": "Mean (SD) blood Phe, On treatment", "setting": "blood Phe; [3]", "result": "517.7 (411.7) μmol/L"},
      {"measurement": "Least squares mean change from baseline in blood Phe to first Phe measurement (Day 3)", "setting": "blood Phe; Day 3, 20 mg/kg", "result": -167.5, "unit": "µmol/L"},
      {"measurement": "Least squares mean change from baseline in blood Phe to first Phe measurement (Day 3)", "setting": "blood Phe; Day 3, 60 mg/kg", "result": -206.6, "unit": "µmol/L"},
      {"measurement": "LSM difference in blood Phe change vs. sapropterin dihydrochloride", "setting": "blood Phe; Day 3, PTC923 20 mg/kg, underlying changes in μmol/L", "result": "−95.2"},
      {"measurement": "LSM difference in blood Phe change vs. sapropterin dihydrochloride", "setting": "blood Phe; Day 3, PTC923 60 mg/kg, underlying changes in μmol/L", "result": "−131.3"},
      {"measurement": "Effect on blood Phe compared with sapropterin dihydrochloride 20 mg/kg (in words)", "setting": "blood Phe; PTC923 20 mg/kg", "result": "numerically larger"},
      {"measurement": "Reducing blood Phe compared with sapropterin dihydrochloride 20 mg/kg (in words)", "setting": "blood Phe; PTC923 60 mg/kg, p=0.0098", "result": "significantly more effective"},
      {"measurement": "Mean absolute reduction in plasma phenylalanine (FIG. 1)", "setting": "blood Phe; PTC923 (60 mg/kg/day)", "result": "over 200 micromole per liter"},
      {"measurement": "Mean (SD) blood Phe, At baseline", "setting": "blood Phe; Subjects with classical PKU (N = 11), 20 mg/kg period", "result": "944.6 (354.6) μmol/L"},
      {"measurement": "Mean (SD) blood Phe, Change", "setting": "blood Phe; [4]", "result": "−75.5 (201.8) μmol/L"},
      {"measurement": "Least squares mean (SE) change from baseline in blood Phe", "setting": "blood Phe; Subjects with classical PKU (N = 11), 20 mg/kg/day oral, listed as PTC923, 20 mg/kg/day", "result": "−71.5 μmol/L and −71.5 (61.8) μmol/L"},
      {"measurement": "Mean (SD) blood Phe, On treatment", "setting": "blood Phe; [4]", "result": "869.1 (424.1) μmol/L"},
      {"measurement": "Mean (SD) blood Phe, At baseline", "setting": "blood Phe; Subjects with classical PKU (N = 11), 60 mg/kg period", "result": "947.2 (363.0) μmol/L"},
      {"measurement": "Mean (SD) blood Phe, Change", "setting": "blood Phe; [5]", "result": "−146.0 (187.7) μmol/L"},
      {"measurement": "Least squares mean (SE) change from baseline in blood Phe", "setting": "blood Phe; Subjects with classical PKU (N = 11), 60 mg/kg/day oral, listed as PTC923, 60 mg/kg/day", "result": "−150.8 μmol/L and −150.8 (63.1) μmol/L"},
      {"measurement": "Mean (SD) blood Phe, On treatment", "setting": "blood Phe; [5]", "result": "801.2 (396.5) μmol/L"},
      {"measurement": "Classical PKU subjects responding with a decrease in phenylalanine levels of at least 20%", "setting": "blood Phe; classical PKU subjects", "result": "about 45%"},
      {"measurement": "Number of patients showing blood Phe reduction of ≥20%, higher than with sapropterin", "setting": "blood Phe; cofactor responder analysis", "result": 50, "unit": "%"},
      {"measurement": "Number of subjects normalized (day 7 blood phenylalanine less than 120 micromole per liter) compared to sapropterin dihydrochloride", "setting": "blood Phe; day 7", "result": "3-4 times"},
      {"measurement": "Least squares mean change from baseline in blood Phe", "setting": "blood Phe; group of 12 responders (Phe reduction ≥20%, baseline ≥300 μmol/L), 20 mg/kg", "result": -234.8, "unit": "µmol/L"},
      {"measurement": "Least squares mean change from baseline in blood Phe", "setting": "blood Phe; group of 12 responders (Phe reduction ≥20%, baseline ≥300 μmol/L), 60 mg/kg", "result": -322.2, "unit": "µmol/L"},
      {"measurement": "LSM difference in blood Phe change vs. sapropterin dihydrochloride", "setting": "blood Phe; group of 12 responders, PTC923 60 mg/kg", "result": -182.5, "unit": "µmol/L"},
      {"measurement": "Subject-reported effects (in words)", "setting": "blood Phe; human, in vivo", "result": "improvement in sleep quality and better focus"},
      {"measurement": "Times more likely to reach normalized blood phenylalanine (less than 120 micromole per liter) compared to sapropterin dihydrochloride", "setting": "blood Phe; human, in vivo", "result": 13.45, "unit": "times"},
      {"measurement": "Non-classical subjects normalized (blood phenylalanine less than 120 micromole per liter)", "setting": "blood Phe; non-classical subjects", "result": 46, "unit": "%"},
      {"measurement": "Proportion of patients achieving blood Phe <360 μmol/L", "setting": "blood Phe; on either dose of PTC923", "result": 54, "unit": "%"},
      {"measurement": "More subjects responded than to sapropterin dihydrochloride", "setting": "blood Phe; overall responders", "result": 60, "unit": "%"},
      {"measurement": "Absolute Phe reduction from baseline", "setting": "blood Phe; [6]", "result": -485.3, "unit": "µmol/L"},
      {"measurement": "Absolute mean percentage change in Phe from baseline", "setting": "blood Phe; [6]", "result": -72.5, "unit": "%"},
      {"measurement": "Least squares mean change from baseline in blood Phe", "setting": "blood Phe; sensitivity analysis population (excluding periods with baseline Phe <300 μmol/L), 20 mg/kg", "result": -167.8, "unit": "µmol/L"},
      {"measurement": "Least squares mean change from baseline in blood Phe", "setting": "blood Phe; sensitivity analysis population (excluding periods with baseline Phe <300 μmol/L), 60 mg/kg", "result": -226.9, "unit": "µmol/L"},
      {"measurement": "LSM difference in blood Phe change vs. sapropterin dihydrochloride", "setting": "blood Phe; sensitivity analysis population, PTC923 60 mg/kg", "result": -121.4, "unit": "µmol/L"},
      {"measurement": "Patients reporting any adverse event", "setting": "[1]; 20 mg/kg", "result": 25, "unit": "%"},
      {"measurement": "Patients reporting severe AE", "setting": "[1]; 20 mg/kg", "result": 4, "unit": "%"},
      {"measurement": "Patients reporting treatment-related AE", "setting": "[1]; 20 mg/kg", "result": 0, "unit": "%"},
      {"measurement": "Headache (all-cause AE)", "setting": "[1]; 20 mg/kg", "result": 4, "unit": "%"},
      {"measurement": "Patients reporting any adverse event", "setting": "[1]; 60 mg/kg", "result": 29, "unit": "%"},
      {"measurement": "Patients reporting severe AE", "setting": "[1]; 60 mg/kg", "result": 0, "unit": "%"},
      {"measurement": "Patients reporting treatment-related AE", "setting": "[1]; 60 mg/kg", "result": 13, "unit": "%"},
      {"measurement": "Headache (all-cause AE)", "setting": "[1]; 60 mg/kg", "result": 17, "unit": "%"}
    ]}
  ]
}
